One data set addresses T1, BRD9 (Homo sapiens, UniProt Q9H8M2).
T1 sequence (Q9H8M2 1-597): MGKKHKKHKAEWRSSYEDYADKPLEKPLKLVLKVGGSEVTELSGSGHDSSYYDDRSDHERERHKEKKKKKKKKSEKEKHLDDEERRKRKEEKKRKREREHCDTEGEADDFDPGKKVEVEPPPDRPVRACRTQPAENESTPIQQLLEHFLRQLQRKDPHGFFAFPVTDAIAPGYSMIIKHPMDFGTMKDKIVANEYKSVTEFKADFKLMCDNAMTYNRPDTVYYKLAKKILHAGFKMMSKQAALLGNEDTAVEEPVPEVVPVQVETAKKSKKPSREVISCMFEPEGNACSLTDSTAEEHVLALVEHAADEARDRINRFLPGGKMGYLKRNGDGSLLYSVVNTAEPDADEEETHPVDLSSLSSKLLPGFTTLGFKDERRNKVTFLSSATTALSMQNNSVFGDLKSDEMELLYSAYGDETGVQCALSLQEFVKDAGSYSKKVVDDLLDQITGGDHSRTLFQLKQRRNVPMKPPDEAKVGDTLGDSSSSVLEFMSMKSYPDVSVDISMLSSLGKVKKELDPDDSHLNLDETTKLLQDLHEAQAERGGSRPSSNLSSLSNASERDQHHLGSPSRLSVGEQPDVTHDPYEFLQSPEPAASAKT
Kind of data set: BRD9 degradation in Yamato-SS cells (endogenous), Western blot. Type of data set: cell-based. Conditions: percent BRD9 detected, read-out: Emax(%). Here is the method: The purpose of this study was to evaluate the detection of BRD9 in a human cell line and susceptibility to degradation by Compound 1.
Previously frozen YAMATO-SS human cells (provided by the RIKEN BRC through the National BioResource Project of the MEXT/AMED, Japan (cat #RCB3577)) were thawed. Upon thawing, the cells were transferred to a 15 mL conical tube containing 10 mL of warm RPMI-1640 medium (Catalog No. C2400500BT, Gibco, Grand Island, NY, USA) supplemented with 10% FBS (Catalog No. SV30087.03, Cytiva, Marlborough, MA, USA) and spun down for 5 minutes at 1200 rpm. An aliquot was diluted 2× with Trypan Blue solution 0.4% (Catalog No. 15250061, ThermoSischer Scientific, Waltham, MA, USA) and cell count was determined. […]
Samples were boiled for 5 minutes and placed on ice for 30 minutes. […] Supernatants were transferred to a new 2.0 mL microcentrifuge tube and total protein concentrations were measured using Pierce™ BCA Protein Assay Kit (Catalog No. 23225, ThermoFischer Scientific, Waltham, MA USA).
After total protein quantification, all samples were diluted to a fixed μg/μL of protein in 6× loading buffer (Catalog No. BP-111R, Boston Bioproducts, Inc., Milford, MA, USA) for a final concentration of 40 μg of total protein in 1× loading buffer per lane. […]

Data set [1] can be described thus: Crystallization from hot saturated solutions by fast cooling. Type of data set: physicochemical. Conditions: for Comments / XRPD: hot saturated solution. Here is the method:
Samples with no precipitates were put in −20° C. freezer for crystallization. Precipitates were collected by filtration. The solid part (wet cake) were investigated by XRPD.

Each structure is given as a SMILES string. Read-outs that look alike come from different tables or passages of the source.

As for `COc1cc(-c2cn(C)c(=O)c(C)c2C)cc(OC)c1CN1CC[C@H](N2CCN(c3ccc(N[C@H]4CCC(=O)NC4=O)cc3F)CC2)C(F)(F)C1` [Compound 1, (S)-3-((4-(4-((S)-1-(2,6-dimethoxy-4-(1,4,5-trimethyl-6-oxo-1,6-dihydropyridin-3-yl)benzyl)-3,3-difluoropiperidin-4-yl)piperazin-1-yl)-3-fluorophenyl)amino)-piperidine-2,6-dione], the % BRD9 remaining came out at 1.2% on BRD9 (4 hr) and 3.4% at BRD9 (24 hr). The “Comments: form after seeding” value in data set [1] (2-MeTHF, add Pattern G as seeds, slurry for 5 days) is recorded as “Pattern G”. Also, the Comments result in data set [1] (2-MeTHF) and in data set [1] (Methanol) was “Clear solution” each time. Besides, the XRPD entry in data set [1] (Acetone) was “Pattern B”; in data set [1] (Ethanol) it was “Pattern F”; in data set [1] (Ethyl acetate), “Pattern F”.

The values are drawn from patent publication US20240245677A1, “SELECTED COMPOUNDS FOR TARGETED DEGRADATION OF BRD9” (C4 THERAPEUTICS, INC., priority 2021, published 2024).
